Results from US5677470A, “Baccatin derivatives and processes for preparing the same” (Tanabe Seiyaku Co., Ltd., priority 1994, dated 1997).
Values after ≈ are worked out from the molar mass of the structure shown.

Legend:
[1] = solubility in physiological saline; type: physicochemical
Protocol: Solubility: 5 mg/ml (physiological saline)
In the tables, solubility means a solubility in physiological saline.

[2] = tested on: ovary cancer and cancers of thymus and others; conditions: cited from earlier work
BDF1 mice = experiment: toxicity, intraperitoneal administration to BDF1 mice, 20 days observation; type: in vivo, mouse; conditions: 25 mg/kg, 4 times once a day, observed for 20 days
From the text: Further, the taxol derivative of the present invention or a pharmaceutically acceptable salt thereof has low toxicity and high water solubility.

[3] = cited from earlier work
various kinds of cancers = conditions: cited from earlier work
[4] = methanesulfonate, medium not printed at the place

| Compound | solubility ([1]; physiological saline) [µg/mL] | other results |
| --- | --- | --- |
| CCOC(=O)[C@@H](N)CC(=O)OCCCCC(=O)O[C@@H](C(=O)O[C@H]1C[C@@]2(O)[C@@H](OC(=O)c3ccccc3)[C@@H]3[C@]4(OC(C)=O)CO[C@@H]4C[C@H](O)[C@@]3(C)C(=O)[C@H](O)C(=C1C)C2(C)C)[C@@H](NC(=O)OC(C)(C)C)c1ccccc1 [Example 37] | 1000 (≈ 951 µM) |  |
| CCOC(=O)[C@@H](N)CC(=O)OCC(=O)O[C@@H](C(=O)O[C@H]1C[C@@]2(O)[C@@H](OC(=O)c3ccccc3)[C@@H]3[C@]4(OC(C)=O)CO[C@@H]4C[C@H](O)[C@@]3(C)C(=O)[C@H](OC(C)=O)C(=C1C)C2(C)C)[C@@H](NC(=O)c1ccccc1)c1ccccc1 [Example 59, 4α,10β-diacetoxy-13α-{(2R,3S)-3-benzoylamino-2-[((3S)-3-amino-3-ethoxycarbonylpropionyloxy)acetoxy]-3-phenylpropionyloxy}-2α-benzoyloxy-5β,20-epoxy-1β,7β-dihydroxytax-l 1-en-9-one.methanesulfonate] | 300 |  |
| CC(=O)O[C@@]12CO[C@@H]1C[C@H](O)[C@@]1(C)C(=O)[C@H](O)C3=C(C)[C@@H](OC(=O)[C@H](O)[C@@H](NC(=O)OC(C)(C)C)c4ccccc4)C[C@@](O)([C@@H](OC(=O)c4ccccc4)[C@H]21)C3(C)C [4α-acetoxy-2α-benzoyloxy-5β,20-epoxy-1β,7β,10β-trihydroxy-13α-[(2R,3S)-3-phenyl-3-(t-butoxycarbonylamino)-2-hydroxypropionyloxy]-tax-11-en-9-one] |  | antitumor activities [2]: excellent antitumor activities |
| COCCOC(=O)[C@@H](N)CC(=O)OCC(=O)O[C@@H](C(=O)O[C@H]1C[C@@]2(O)[C@@H](OC(=O)c3ccccc3)[C@@H]3[C@]4(OC(C)=O)CO[C@@H]4C[C@H](O)[C@@]3(C)C(=O)[C@H](O)C(=C1C)C2(C)C)[C@@H](NC(=O)OC(C)(C)C)c1ccccc1 [Example 35, 4α-acetoxy-13α-{(2R,3S)-3-tert-butoxycarbonylamino-2-[((3S)-3-amino-3-(2-methoxyethoxycarbonyl)propionyloxy)acetoxy]-3-phenylpropionyloxy}-2α-benzoyloxy-5β,20-epoxy-1β,7β,10β-trihydroxytax-11-en-9-one.methanesulfonate] | 10000 | solubility [1, 4]: 10000 µg/mL; death (BDF1 mice): no case of death was observed |
| CCOC(=O)[C@@H](N)CC(=O)OCC(=O)O[C@@H](C(=O)O[C@H]1C[C@@]2(O)[C@@H](OC(=O)c3ccccc3)[C@@H]3[C@]4(OC(C)=O)CO[C@@H]4C[C@H](O)[C@@]3(C)C(=O)[C@H](O)C(=C1C)C2(C)C)[C@@H](NC(=O)c1cc(OC)ccc1OC)c1ccccc1 [Example 43] | 500 (≈ 466 µM) |  |
| CCOC(=O)[C@@H](N)CC(=O)OCC(=O)O[C@@H](C(=O)O[C@H]1C[C@@]2(O)[C@@H](OC(=O)c3ccccc3)[C@@H]3[C@]4(OC(C)=O)CO[C@@H]4C[C@H](O)[C@@]3(C)C(=O)[C@H](O)C(=C1C)C2(C)C)[C@@H](NC(=O)OCCOC)c1ccccc1 [Example 47] | > 10000 |  |
| CCOC(=O)[C@@H](N)CC(=O)OCC(=O)O[C@@H](C(=O)O[C@H]1C[C@@]2(O)[C@@H](OC(=O)c3ccccc3)[C@@H]3[C@]4(OC(C)=O)CO[C@@H]4C[C@H](O)[C@@]3(C)C(=O)[C@H](O)C(=C1C)C2(C)C)[C@@H](NC(=O)c1ccco1)c1ccccc1 [Example 40] | 6000 (≈ 5980 µM) |  |
| CC(=O)O[C@H]1C(=O)[C@@]2(C)[C@H]([C@H](OC(=O)c3ccccc3)[C@]3(O)C[C@H](OC(=O)[C@H](O)[C@@H](NC(=O)c4ccccc4)c4ccccc4)C(C)=C1C3(C)C)[C@]1(OC(C)=O)CO[C@@H]1C[C@@H]2O [taxol, 4α,10β-diacetoxy-2α-benzoyloxy-5β,20-epoxy-1β,7β-dihydroxy-13α-[(2R,3S)-3-phenyl-3-benzoylamino-2-hydroxypropionyloxy]-tax-11-en-9-one] |  | water-solubility [3]: ≤ 4 µg/mL; antitumor activities [2]: excellent antitumor activities; anti-tumor activity (various kinds of cancers): excellent anti-tumor activity |
| CCOC(=O)[C@@H](N)CC(=O)OCC(=O)O[C@@H](C(=O)O[C@H]1C[C@@]2(O)[C@@H](OC(=O)c3ccccc3)[C@@H]3[C@]4(OC(C)=O)CO[C@@H]4C[C@H](O)[C@@]3(C)C(=O)[C@H](O)C(=C1C)C2(C)C)[C@@H](NC(=O)OC(C)(C)C)c1ccc(F)cc1F [Example 52] | 1000 (≈ 957 µM) |  |
| CC(=O)O[C@@]12CO[C@@H]1C[C@H](O)[C@@]1(C)C(=O)[C@H](O)C3=C(C)[C@@H](OC(=O)[C@H](OC(=O)COC(=O)CCN)[C@@H](NC(=O)c4ccccc4)c4ccccc4)C[C@@](O)([C@@H](OC(=O)c4ccccc4)[C@H]21)C3(C)C [Example 38] | 1000 (≈ 1060 µM) |  |
| CCOC(=O)[C@@H](N)CC(=O)OCC(=O)O[C@@H](C(=O)O[C@H]1C[C@@]2(O)[C@@H](OC(=O)c3ccccc3)[C@@H]3[C@]4(OC(C)=O)CO[C@@H]4C[C@H](O)[C@@]3(C)C(=O)[C@H](O)C(=C1C)C2(C)C)[C@@H](NC(=O)OCC1CC1)c1ccccc1 [Example 49] | 5000 (≈ 4960 µM) |  |
| CC(=O)O[C@@]12CO[C@@H]1C[C@H](O)[C@@]1(C)C(=O)[C@H](O)C3=C(C)[C@@H](OC(=O)[C@H](OC(=O)COC(=O)[C@H](C)N)[C@@H](NC(=O)OC(C)(C)C)c4ccccc4)C[C@@](O)([C@@H](OC(=O)c4ccccc4)[C@H]21)C3(C)C [Example 36] | 2000 (≈ 2130 µM) |  |
| CCOC(=O)[C@@H](N)CC(=O)OCC(=O)O[C@@H](C(=O)O[C@H]1C[C@@]2(O)[C@@H](OC(=O)c3ccccc3)[C@@H]3[C@]4(OC(C)=O)CO[C@@H]4C[C@H](O)[C@@]3(C)C(=O)[C@H](O)C(=C1C)C2(C)C)[C@@H](NC(=O)OCC1CCC1)c1ccccc1 [Example 48] | 1000 (≈ 979 µM) |  |
| COCCOC(=O)[C@@H](N)CC(=O)OCC(=O)O[C@@H](C(=O)O[C@H]1C[C@@]2(O)[C@@H](OC(=O)c3ccccc3)[C@@H]3[C@]4(OC(C)=O)CO[C@@H]4C[C@H](O)[C@@]3(C)C(=O)[C@H](O)C(=C1C)C2(C)C)[C@@H](NC(=O)OC(C)(C)C)c1ccc(F)cc1F [Example 57] | 5000 (≈ 4650 µM) |  |
| CC(=O)O[C@@]12CO[C@@H]1C[C@H](O)[C@@]1(C)C(=O)[C@H](O)C3=C(C)[C@@H](OC(=O)[C@H](OC(=O)COC(=O)CNC(=O)CN)[C@@H](NC(=O)OC(C)(C)C)c4ccccc4)C[C@@](O)([C@@H](OC(=O)c4ccccc4)[C@H]21)C3(C)C [Example 34] | 10000 (≈ 10200 µM) |  |
| CCOC(=O)[C@@H](N)CC(=O)OCC(=O)O[C@@H](C(=O)O[C@H]1C[C@@]2(O)[C@@H](OC(=O)c3ccccc3)[C@@H]3[C@]4(OC(C)=O)CO[C@@H]4C[C@H](O)[C@@]3(C)C(=O)[C@H](O)C(=C1C)C2(C)C)[C@@H](NC(=O)OCC1C(C)(C)C1(F)F)c1ccccc1 (some centres unmarked) [Example 45] | 600 (≈ 560 µM) |  |
| CCOC(=O)[C@@H](N)CC(=O)OCC(=O)O[C@@H](C(=O)O[C@H]1C[C@@]2(O)[C@@H](OC(=O)c3ccccc3)[C@@H]3[C@]4(OC(C)=O)CO[C@@H]4C[C@H](O)[C@@]3(C)C(=O)[C@H](O)C(=C1C)C2(C)C)[C@@H](NC(=O)OC(C)(C)C)c1ccc(OC)cc1 [Example 56] | 15000 (≈ 14400 µM) |  |
| CC(=O)O[C@@]12CO[C@@H]1C[C@H](O)[C@@]1(C)C(=O)[C@H](O)C3=C(C)[C@@H](OC(=O)[C@H](OC(=O)COC(=O)[C@@H]4CCCN4)[C@@H](NC(=O)OC(C)(C)C)c4ccccc4)C[C@@](O)([C@@H](OC(=O)c4ccccc4)[C@H]21)C3(C)C [Example 33] | 1400 (≈ 1450 µM) |  |
| CCOC(=O)[C@@H](N)CC(=O)OCC(=O)O[C@@H](C(=O)O[C@H]1C[C@@]2(O)[C@@H](OC(=O)c3ccccc3)[C@@H]3[C@]4(OC(C)=O)CO[C@@H]4C[C@H](O)[C@@]3(C)C(=O)[C@H](O)C(=C1C)C2(C)C)[C@@H](NC(=O)CCCCCl)c1ccccc1 [Example 42] | 5000 (≈ 4870 µM) |  |
| CCOC(=O)[C@@H](N)CC(=O)OCC(=O)O[C@@H](C(=O)O[C@H]1C[C@@]2(O)[C@@H](OC(=O)c3ccccc3)[C@@H]3[C@]4(OC(C)=O)CO[C@@H]4C[C@H](O)[C@@]3(C)C(=O)[C@H](O)C(=C1C)C2(C)C)[C@@H](NC(=O)OCC(F)(F)F)c1ccccc1 [Example 46] | 5000 (≈ 4830 µM) |  |
| CCOC(=O)N[C@@H](c1ccccc1)[C@@H](OC(=O)COC(=O)C[C@H](N)C(=O)OCC)C(=O)O[C@H]1C[C@@]2(O)[C@@H](OC(=O)c3ccccc3)[C@@H]3[C@]4(OC(C)=O)CO[C@@H]4C[C@H](O)[C@@]3(C)C(=O)[C@H](O)C(=C1C)C2(C)C [Example 44] | 4000 (≈ 4080 µM) |  |
| CCOC(=O)[C@@H](N)CC(=O)OCC(=O)O[C@@H](C(=O)O[C@H]1C[C@@]2(O)[C@@H](OC(=O)c3ccccc3)[C@@H]3[C@]4(OC(C)=O)CO[C@@H]4C[C@H](O)[C@@]3(C)C(=O)[C@H](O)C(=C1C)C2(C)C)[C@@H](NC(=O)c1cccs1)c1ccccc1 [Example 41] | 700 (≈ 687 µM) |  |
| CCOC(=O)[C@@H](N)CC(=O)OCC(=O)O[C@@H](C(=O)O[C@H]1C[C@@]2(O)[C@@H](OC(=O)c3ccccc3)[C@@H]3[C@]4(OC(C)=O)CO[C@@H]4C[C@H](O)[C@@]3(C)C(=O)[C@H](O)C(=C1C)C2(C)C)[C@@H](NC(=O)OC(C)(C)C)c1ccccc1 [Example 32, 4α-acetoxy-13α-{(2R,3S)-3-tert-butoxycarbonylamino-2-[((3S)-3-amino-3-ethoxycarbonylpropionyloxy)acetoxy]-3-phenylpropionyloxy}-2α-benzoyloxy-5β,20-epoxy-1β,7β,10β-trihydroxytax-11-en-9-one.methanesulfonate] | 5000 | solubility [1, 4]: 5000 µg/mL; death (BDF1 mice): no case of death was observed |
